7 compounds from patent US10143696B2, “Methods and compositions for decreasing gastric emptying” (priority 2015, dated 2018) can be followed below.

Holding throughout (assay type): in vivo, rat
Experiment [1] has as its system Sprague-Dawley rats. Briefly: Gastric emptying of a test meal in rats. As to the method: Rats were fasted overnight (16-18 hours) with free access to water. The next morning, compound was administered and animals were individually housed in bedding-free cages with pre-weighed food available ad libitum and access to water for 2 hours. The water and food were then removed and the remaining food was re-weighed. Gastric emptying of the ingested meal was assessed 4 hours later. Animals were euthanized by CO2 inhalation followed by thoracotomy. The abdominal cavity was opened, the pylorus and cardia were clamped and the stomach was removed. The excised stomach was weighed and then opened along the greater curvature, rinsed with tap water, lightly dried and re-weighed. The amount of food in the stomach (grams) was estimated based on the difference between the total weight of the stomach plus its contents and the weight of the stomach after the contents were removed. The meal ingested (food intake) was determined by the difference between pre- and post-feeding weight at the end of the 2 hour period. Gastric emptying during the 4 hour experiment is represented as: Gastric emptying=[1−(gastric content/food intake)]×100. Gastric Secretion
Male, Sprague-Dawley rats (weighing between 229-264 g each and 4 rats per test group) were fasted overnight (19 hours). The rats were then orally administered 10 mg/kg, 30 mg/kg or 100 mg/kg of Compound A with a 0.5% MC or Capryol:Solutol:Polyethyleneglycol (CSP) vehicle or with a 0.5% MC or CSP vehicle alone. The rats were then placed in individual, bedding-free cages and allowed ad libitium access to pre-weighed food and water for two hours. The food and water were then removed and the food was reweighed. Gastric emptying was then assessed four hours later by euthanizing the rats and analyzing the stomach and stomach contents. […] Data are represented as the means+the standard error of the means (S.E.M). % Gastric Emptying in 4 hours=(1−(gastric content/food intake))×100. […] Data are represented as the means+S.E.M.
Male, Sprague-Dawley rats (weighing between 235-268 g each and 4-6 rats per test group) were fasted overnight (19 hours). The rats were then subcutaneously administered 10 mg/kg, 30 mg/kg or 100 mg/kg of carbamazepine (Compound B) with a 25% HPBCD vehicle or with a 25% HPBCD vehicle alone. Some test animals were not dosed (i.e., naïve). The rats were then placed in individual, bedding-free cages and allowed ad libitium access to pre-weighed food and water for two hours. The food and water were then removed and the food was reweighed. […] Data are represented as the means+S.E.M. % Gastric Emptying in 4 hours=(1−(gastric content/food intake))×100.
Male, Sprague-Dawley rats (weighing between 238-274 g each and 6 rats per test group) were fasted overnight (19 hours). The rats were then orally administered 30 mg/kg, 100 mg/kg or 300 mg/kg of carbamazepine (Compound B) with a 0.5% MC vehicle or with a 0.5% MC vehicle alone. The rats were then placed in individual, bedding-free cages and allowed ad libitium access to pre-weighed food and water for two hours. The food and water were then removed and the food was reweighed. […] Data are represented as the means+S.E.M. % Gastric Emptying in 4 hours=(1−(gastric content/food intake))×100.
Male, Sprague-Dawley rats (weighing between 235-276 g each and 4-6 rats per test group) were fasted overnight (19 hours).

The test system of experiment [2] is Sprague-Dawley rats. Put plainly: Gastrointestinal transit, charcoal meal assay. The note with it: for dosage level with significant effect on stomach weight / stomach weight: charcoal meal assay; for stomach weight: vs vehicle treated animals; for gastrointestinal transit (% small intestinal transit): charcoal meal, 60 minutes pretreatment, vs vehicle. The protocol:
Small intestinal transit was measured based on a known method which involved the oral administration of a charcoal meal (Gmerek et al. (1986). “Independent central and peripheral mediation of morphine-induced inhibition of gastrointestinal transit in rats.” J Pharmacol Exp Ther 236(1): 8-13). Rats were fasted with free access to water for 18 hours. Test compound or vehicle was dosed prior to oral administration of a charcoal slurry containing activated charcoal, flour and water in a ratio of 1:2:7.5 (10 ml/kg orally). One hour after receiving the charcoal slurry, rats were euthanized by CO2 asphyxiation. The stomach and GI tract was excised from each animal. Whole stomach weight was recorded and the length of the small intestine (cm) (stomach to cecum) and the distance (cm) to the leading edge of charcoal was measured. Small intestinal transit data are expressed as a percentage of the distance traveled (i.e. % small intestinal transit=(distance charcoal traveled)/(total length of small intestine (stomach to cecum)×100). Pretreatment times were determined on the basis of pharmacokinetic data (not shown) and were as follows: Compound A, 60 minutes, Compound C, 60 minutes; carbamazepine, 60 minutes. Morphine was administered with a pretreatment time of 30 mins based on previous experience.

Experiment [3] has as its system Sprague-Dawley rats. Put plainly: Gastric secretion volume and pH in fasted rats. The note with it: lansoprazole 30 mg/kg orally, alone (Example 17). As to the method: Gastric section and acidity was assessed by direct measurement in fasted animals (Melo et al. (2006). “Effect of acid secretion blockade on acute gastric mucosal lesions induced by Tityus serrulatus scorpion toxin in anaesthetized rats.” Toxicon 48(5): 543-549). Rats were fasted with free access to water for 24 hours on wire inserts without bedding. The next day, all rats were dosed orally with 0.5% MC (5 ml/kg) to remove any residual stomach contents and test compound or vehicle was administered. The animals were water deprived for 3 hours, anesthetized with isoflurane (5% in O2), and a laparotomy was conducted followed by tight ligation of the pylorus and cardia. After ligation, the stomach was removed and the rat was immediately euthanized by decapitation. The stomach was opened along the greater curvature and gastric fluid collected into Eppendorf tubes and centrifuged (5 min at 10×1000 g). pH was determined by pipetting gastric fluid directly onto an indicator stick (Whatman, Panpeha Plus, pH0-14). Data are represented as the mean volume and mean pH.
Male, Sprague-Dawley rats (weighing between 254-270 g each and 6 rats per test group) were fasted overnight (24 hours) on wire inserts without bedding. The rats were first orally dosed with 0.5% MC vehicle and then subcutaneously injected with 3 mg/kg or 10 mg/kg of Compound A with a 25% HPBCD vehicle or with a 25% HPBCD vehicle alone. The test animals were water deprived for 3 hours and then anesthetized with isoflurane and the pylorus and cardia were tightly ligated. The stomachs were then removed and the rats were euthanized. The gastric fluid was removed from the stomachs and collected in eppendorf tubes by cutting along the greatest curvature and spun in a centrifuge. Gastric secretion data were analyzed by a one-way ANOVA using a Bonferroni Multiple Comparison test, where *P<0.05 and **P<0.01 as compared to the appropriate vehicle. Data are represented as the means+S.E.M. PH data were analyzed by a one-way ANOVA using Dunnett's Multiple Comparison Test. Data are represented as the means+S.E.M.
This Example measured volume and pH of gastric secretion three hours post subcutaneous administration of 10 mg/kg of Compound A. The animals were water deprived during this time.

[4] abbreviates: p.o. 30, 100, 300 mg/kg, 0.5% MC vehicle (Example 5).
[5] abbreviates: s.c. 10, 30, 100 mg/kg, 25% HPBCD vehicle (Example 4).
[6] abbreviates: comparison at equal or similar dosages, routes and vehicles.
[7] abbreviates: p.o. 10 mg/kg and 30 mg/kg, 0.5% MC vehicle (Example 6).
Setting [8] is: p.o. 100 mg/kg and 300 mg/kg, 0.5% MC vehicle (Example 7).
Where [9] appears, read: p.o. 100 mg/kg, 0.5% MC vehicle (Example 6).
Setting [10] is: s.c. 10, 30, 100 mg/kg, 25% HPBCD vehicle (Example 6).
[11] abbreviates: i.p. 10, 30, 100 mg/kg, 25% HPBCD vehicle (Example 8).

Each structure is given as a SMILES string. Entries after “also recorded” stand apart in the source; their conditions may differ.

Take `NC(=O)N1c2ccccc2C=Cc2ccccc21` [Compound B, carbamazepine, reference compound]: in the experiment on Sprague-Dawley rats [1] (equal dosage, Examples 4 and 5), the “percent of gastric inhibition, oral 0.5% MC compared with subcutaneous 25% HPBCD” value was “numerically more potent”. Besides, in the experiment on Sprague-Dawley rats [1] (setting [4]), the “% Gastric Emptying in 4 hours” value is recorded as “inhibits gastric emptying”, the food intake entry is “reduces food intake” and the stomach weight result is on record as “increases stomach weight”. Moreover, the stomach weight result with Sprague-Dawley rats [1] (s.c. 100 mg/kg, 25% HPBCD vehicle (Example 4)) is “stomach weight increase”. For the same compound, in the experiment with Sprague-Dawley rats [1] (setting [5]), the “% Gastric Emptying in 4 hours” value is “inhibits the percent of gastric emptying” and the food intake result is “food intake decreased”. In the experiment with Sprague-Dawley rats [2], the “dosage level with significant effect on stomach weight” value is listed as 30 mg/kg, the stomach weight entry is recorded as “statistically significant increase in stomach weight” and the “gastrointestinal transit (% small intestinal transit)” value is recorded as “No statistically significant decrease in gastrointestinal transit; also recorded: decreasing trend”.
Consider `Cc1c(OCC(F)(F)F)ccnc1C[S+]([O-])c1nc2ccccc2[nH]1` (centres unmarked) [Lansoprazole, lansoprazole, reference compound], for which, in the experiment on Sprague-Dawley rats [3], the “pH of gastric secretion” value is on record as “increase the pH” and the “volume of gastric secretion” value is “did not affect volume of gastric secretion”.
For `NC1=N[C@H](O)[C@H]2[C@H]3O[C@]4(O)O[C@@H]([C@@H](O)[C@@]2(N1)[C@@H]4O)[C@]3(O)CO` [TTX, tetrodotoxin, reference compound], the “gastric emptying inhibition potency compared between compounds” value in the experiment with Sprague-Dawley rats [1] (rat, in vivo) was “comparable to that achieved by 30 mg/kg of Compound A administered orally”. For the same compound, in the experiment on Sprague-Dawley rats [1] (rat, in vivo, sc), the “% Gastric Emptying in 4 hours” value is “inhibits gastric emptying; also recorded: statistically significant decrease in gastric emptying” and the food intake entry is listed as “reduces food intake; also recorded: dose dependent decrease in food intake”.
In the case of `COc1cc2nc(N3CCN(C(=O)C4CCCO4)CC3)nc(N)c2cc1OC` (centres unmarked) [terazosin, reference compound], in the experiment with Sprague-Dawley rats [1] (rat, in vivo), the “% Gastric Emptying in 4 hours” value is on record as “Neither terazosin nor atenolol alone had a significant effect”.
`NC(=O)[C@@H]1CC[C@H](c2ccc(OCc3ccccc3F)cc2)N1` [Compound C]: the “gastric emptying inhibition potency compared between compounds” value with Sprague-Dawley rats [1] (setting [6]) is given as “least potent”. Also, the “% Gastric Emptying in 4 hours” value in the experiment with Sprague-Dawley rats [1] (setting [7]) is “did not affect”; with Sprague-Dawley rats [1] (setting [8]) it was “inhibits gastric emptying”; in the experiment on Sprague-Dawley rats [1] (setting [9]), “inhibits the percentage of gastric emptying”; with Sprague-Dawley rats [1] (setting [10]), “did not inhibit the percentage of gastric emptying”. The food intake entry is “reduced food intake” in the experiment with Sprague-Dawley rats [1] (setting [7]); “reduces food intake” in the experiment with Sprague-Dawley rats [1] (setting [9]); “reduces food intake” in the experiment on Sprague-Dawley rats [1] (p.o. 10-300 mg/kg, 0.5% MC vehicle (Example 7)); “decreased” in the experiment with Sprague-Dawley rats [1] (setting [10]). Moreover, the stomach weight entry in the experiment on Sprague-Dawley rats [1] (setting [7]) is “did not affect”; in the experiment on Sprague-Dawley rats [1] (setting [8]), “increases stomach weight”; in the experiment on Sprague-Dawley rats [1] (setting [9]) it was “increases stomach weight”; in the experiment on Sprague-Dawley rats [1] (setting [10]), “decreased”; in the experiment on Sprague-Dawley rats [2], “statistically significant increase in stomach weight”. Moreover, the “dosage level with significant effect on stomach weight” value in the experiment on Sprague-Dawley rats [2] is 100 mg/kg. The “gastrointestinal transit (% small intestinal transit)” value in the experiment on Sprague-Dawley rats [2] is given as “No statistically significant decrease in gastrointestinal transit”.
Take `CN1CC[C@]23c4c5ccc(O)c4O[C@H]2[C@@H](O)C=C[C@H]3[C@H]1C5` [morphine, reference compound]: in the experiment with Sprague-Dawley rats [2] (rat, in vivo), the gastrointestinal transit result was “less than 35%” and the “stomach weight (average)” value is “over 7 g”.
Turning to `O=S(=O)(Nc1nncs1)c1cc(Cl)c(Oc2ccc(C(F)(F)F)cc2-c2ccnnc2)cc1F` [Compound D], in the experiment with Sprague-Dawley rats [1] (setting [6]), the “gastric emptying inhibition potency compared between compounds” value was “greater gastric emptying inhibition potency than Compounds B and C”. The stomach weight result in the experiment on Sprague-Dawley rats [1] (i.p. 10 mg/kg and 100 mg/kg, 25% HPBCD vehicle (Example 8)) was “increases stomach weight”. In the experiment with Sprague-Dawley rats [1] (setting [11]), the “% Gastric Emptying in 4 hours” value is recorded as “inhibits gastric emptying” and the food intake entry is reported as “reduces food intake”.
